Source: PMC7490411 (Signal Transduction and Targeted Therapy, 2020)

Assays:
Assay in all cases: KINOMEscan
Assay type in all cases: binding
Conditions in all cases: 1000 nM
PKAC-beta = test system: PKAC-beta
CASK = test system: CASK
DCAMKL2 = test system: DCAMKL2
CAMK2A = test system: CAMK2A
MAP3K3 = test system: MAP3K3
BMX = molecular target: T1, BMX (Homo sapiens, UniProt P51813)
T1 construct: purchased Invitrogen (Carlsbad, CA, USA)
T1 sequence (P51813 1-675): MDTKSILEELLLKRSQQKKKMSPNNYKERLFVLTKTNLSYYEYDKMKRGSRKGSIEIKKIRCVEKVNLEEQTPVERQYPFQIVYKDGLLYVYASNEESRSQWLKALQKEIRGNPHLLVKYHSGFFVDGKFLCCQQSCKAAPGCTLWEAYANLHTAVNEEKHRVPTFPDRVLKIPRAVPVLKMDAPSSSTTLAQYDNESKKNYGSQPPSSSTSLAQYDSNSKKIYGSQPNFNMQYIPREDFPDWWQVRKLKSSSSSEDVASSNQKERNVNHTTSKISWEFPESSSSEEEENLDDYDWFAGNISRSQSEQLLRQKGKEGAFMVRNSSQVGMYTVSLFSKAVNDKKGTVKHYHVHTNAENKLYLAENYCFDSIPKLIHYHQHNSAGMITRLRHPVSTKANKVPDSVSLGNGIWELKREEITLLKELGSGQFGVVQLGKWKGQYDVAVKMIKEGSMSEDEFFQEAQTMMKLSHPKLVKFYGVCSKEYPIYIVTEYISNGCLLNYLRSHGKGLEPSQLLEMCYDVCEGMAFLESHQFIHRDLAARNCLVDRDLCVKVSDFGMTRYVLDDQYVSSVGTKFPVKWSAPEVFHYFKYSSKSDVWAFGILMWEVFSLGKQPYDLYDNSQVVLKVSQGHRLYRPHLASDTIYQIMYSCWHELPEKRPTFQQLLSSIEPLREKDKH

RAF1 = test system: RAF1
GSK3B = test system: GSK3B
LRRK2(G2019S) = test system: LRRK2(G2019S)
[1] = test system: JAK2(JH1domain-catalytic)
FLT3(K663Q) = test system: FLT3(K663Q)
TTK = test system: TTK
FRK = test system: FRK
NEK6 = test system: NEK6
LIMK1 = test system: LIMK1
CDK5 = test system: CDK5
EPHA2 = test system: EPHA2
MST3 = test system: MST3
FAK = test system: FAK
QSK = test system: QSK
[2] = test system: EGFR(L747-S752del, P753S)
ARK5 = test system: ARK5
[3] = test system: RPS6KA4(Kin.Dom.1-N-terminal)
[4] = test system: RPS6KA5(Kin.Dom.1-N-terminal)
FGR = test system: FGR
CAMK1G = test system: CAMK1G
AURKC = test system: AURKC
[5] = test system: RPS6KA4(Kin.Dom.2-C-terminal)
PRKD2 = test system: PRKD2
BUB1 = test system: BUB1
MAP4K2 = test system: MAP4K2
GRK7 = test system: GRK7
KIT(A829P) = test system: KIT(A829P)
[6] = test system: RSK1(Kin.Dom.2-C-terminal)
IKK-alpha = test system: IKK-alpha
AURKB = test system: AURKB
PIP5K1C = test system: PIP5K1C
SRMS = test system: SRMS
NEK2 = test system: NEK2
KIT(V559D,V654A) = test system: KIT(V559D,V654A)
RIPK1 = test system: RIPK1
TIE2 = test system: TIE2
PIK3CA(E542K) = test system: PIK3CA(E542K)
MEK2 = test system: MEK2
IRAK1 = test system: IRAK1
EGFR(L858R) = test system: EGFR(L858R)

Structure (SMILES): C=CC(=O)Nc1cc(Nc2cc(-c3cccc(NC(=O)c4cc5c(s4)CCCC5)c3C)cn(C)c2=O)ccc1N1CCN(CC)CC1 [CHMFL-BTK-85]
- Percent Control (PKAC-beta): 80%
- Percent Control (CASK): 100%
- Percent Control (DCAMKL2): 88%
- Percent Control (CAMK2A): 82%
- Percent Control (MAP3K3): 100%
- percent of control binding at 1 µM (BMX): 59%
- Percent Control (RAF1): 88%
- Percent Control (GSK3B): 100%
- Percent Control (LRRK2(G2019S)): 100%
- Percent Control [1]: 100%
- Percent Control (FLT3(K663Q)): 100%
- Percent Control (TTK): 54%
- Percent Control (FRK): 19%
- Percent Control (NEK6): 100%
- Percent Control (LIMK1): 98%
- Percent Control (CDK5): 98%
- Percent Control (EPHA2): 87%
- Percent Control (MST3): 66%
- Percent Control (FAK): 99%
- Percent Control (QSK): 100%
- Percent Control [2]: 100%
- Percent Control (ARK5): 97%
- Percent Control [3]: 87%
- Percent Control [4]: 90%
- Percent Control (FGR): 20%
- Percent Control (CAMK1G): 94%
- Percent Control (AURKC): 100%
- Percent Control [5]: 100%
- Percent Control (PRKD2): 100%
- Percent Control (BUB1): 100%
- Percent Control (MAP4K2): 100%
- Percent Control (GRK7): 100%
- Percent Control (KIT(A829P)): 92%
- Percent Control [6]: 100%
- Percent Control (IKK-alpha): 100%
- Percent Control (AURKB): 100%
- Percent Control (PIP5K1C): 99%
- Percent Control (SRMS): 85%
- Percent Control (NEK2): 99%
- Percent Control (KIT(V559D,V654A)): 100%
- Percent Control (RIPK1): 97%
- Percent Control (TIE2): 84%
- Percent Control (PIK3CA(E542K)): 99%
- Percent Control (MEK2): 100%
- Percent Control (IRAK1): 100%
- Percent Control (EGFR(L858R)): 59%
